What all share (format): functional, organism-based
In assay [1] the test system is Zymoseptoria tritici. Briefly: Antifungal activity against azoxystrobin-sensitive Zymoseptoria tritici T0473 carrying cytochrome-b G143 allele assessed as fungal growth inhibition after 6 days at 20 degC by microplate without alamar blue assay. To be noted: T0473, 144 h.
Assay [2] has as its system Zymoseptoria tritici. Nature of the assay: Antifungal activity against azoxystrobin-resistant Zymoseptoria tritici T0485 carrying cytochrome-b A143 allele assessed as fungal growth inhibition after 6 days at 20 degC by microplate without alamar blue assay. To be noted: T0485, 144 h.
Assay [3] deals with Zymoseptoria tritici. Briefly: Antifungal activity against azoxystrobin-sensitive Zymoseptoria tritici IPO94269 carrying cytochrome-b G143 allele assessed as fungal growth inhibition after 6 days at 20 degC by microplate without alamar blue assay. To be noted: IPO94269, 144 h.
For assay [4], the system named is Zymoseptoria tritici. Briefly: Antifungal activity against azoxystrobin-sensitive Zymoseptoria tritici T0460 carrying cytochrome-b G143 allele assessed as fungal colony perpendicular diameter changes after 10 days at 18 degC by spotting on PDA medium assay. To be noted: T0460, 240 h.
For assay [5], the system named is Zymoseptoria tritici. Nature of the assay: Antifungal activity against azoxystrobin-resistant Zymoseptoria tritici T0251 carrying cytochrome-b A143 allele assessed as fungal colony perpendicular diameter changes after 10 days at 18 degC by spotting on PDA medium assay. To be noted: T0251, 240 h.
Assay [6] deals with Zymoseptoria tritici. Nature of the assay: Antifungal activity against azoxystrobin-sensitive Zymoseptoria tritici T0468 carrying cytochrome-b G143 allele assessed as inhibition of spore germination after 2 days at 18 degC by spotting on PDA medium assay. To be noted: T0468, 48 h.
The test system of assay [7] is Zymoseptoria tritici. Nature of the assay: Antifungal activity against azoxystrobin-sensitive Zymoseptoria tritici T0460 carrying cytochrome-b G143 allele assessed as fungal growth inhibition after 6 days at 20 degC by microplate without alamar blue assay. To be noted: T0460, 144 h.
In assay [8] the test system is Zymoseptoria tritici. Briefly: Antifungal activity against azoxystrobin-sensitive Zymoseptoria tritici T021 carrying cytochrome-b G143 allele assessed as fungal growth inhibition after 6 days at 20 degC by microplate without alamar blue assay. Conditions: T021, 144 h.
In assay [9] the test system is Zymoseptoria tritici. Briefly: Antifungal activity against azoxystrobin-sensitive Zymoseptoria tritici T0470 carrying cytochrome-b G143 allele assessed as fungal growth inhibition after 6 days at 20 degC by microplate without alamar blue assay. To be noted: T0470, 144 h.
For assay [10], the system named is Zymoseptoria tritici. Briefly: Antifungal activity against azoxystrobin-sensitive Zymoseptoria tritici T0384 carrying cytochrome-b G143 allele assessed as fungal colony perpendicular diameter changes after 10 days at 18 degC by spotting on PDA medium assay. To be noted: T0384, 240 h.
Assay [11] relates to Zymoseptoria tritici. Briefly: Antifungal activity against azoxystrobin-sensitive Zymoseptoria tritici T0148 carrying cytochrome-b G143 allele assessed as fungal colony perpendicular diameter changes after 10 days at 18 degC by spotting on PDA medium assay. Conditions: T0148, 240 h.
Assay [12] deals with Zymoseptoria tritici. Briefly: Antifungal activity against azoxystrobin-sensitive Zymoseptoria tritici T0210 carrying cytochrome-b G143 allele assessed as fungal colony perpendicular diameter changes after 10 days at 18 degC by spotting on PDA medium assay. Conditions: T0210, 240 h.

Converted amounts (≈) assume the structure as drawn.

As usually defined, the IC50 is the midpoint of a concentration-inhibition curve. As for `CO/C=C(/C(=O)OC)c1ccccc1Oc1cc(Oc2ccccc2C#N)ncn1` [AZOXYSTROBIN], the half-inhibitory concentration (IC50) was 0.01 µg/mL (≈ 0.0248 µM) in the assay with Zymoseptoria tritici [1]; above 100 µg/mL with Zymoseptoria tritici [2]; 0.03 µg/mL (≈ 0.0744 µM) in the assay on Zymoseptoria tritici [3]; 0.09 µg/mL (≈ 0.223 µM) in the assay on Zymoseptoria tritici [4]; 15.3 µg/mL (≈ 38 µM) in the assay on Zymoseptoria tritici [5]; 0.25 µg/mL (≈ 0.62 µM) in the assay with Zymoseptoria tritici [6]. The half-maximal inhibitory concentration (IC50) with Zymoseptoria tritici [7] was 0.03 µg/mL (≈ 0.0744 µM); with Zymoseptoria tritici [8] it was 0.22 µg/mL (≈ 0.545 µM); in the assay on Zymoseptoria tritici [9], below 0.01 µg/mL; with Zymoseptoria tritici [10], 0.33 µg/mL (≈ 0.818 µM); in the assay with Zymoseptoria tritici [11], 0.06 µg/mL (≈ 0.149 µM); in the assay with Zymoseptoria tritici [12] it was 0.06 µg/mL (≈ 0.149 µM).

The values are drawn from ChEMBL document CHEMBL3046287, “Azoxystrobin resistance of French Mycosphaerella graminicola strains assessed by four in vitro bioassays and by screening of G143A substitution” (Crop Prot, 2010).
